According to US20090286829A1, “QUINOLYNYLMETHYLIMIDIZOLES AS THERAPEUTIC AGENTS” (ALLERGAN, INC., priority 2008, published 2009):

What was measured:
Type in all cases: cell-based
[1] = target: T1, Alpha 2A (Homo sapiens, UniProt P08913); assay: RSAT assay, alpha 2A receptor; conditions: ratio of maximal effect to that of standard agonist brimonidine
T1 construct: expressed in transfected cells; host or cells: NIH-3T3
T1 sequence (P08913 1-465): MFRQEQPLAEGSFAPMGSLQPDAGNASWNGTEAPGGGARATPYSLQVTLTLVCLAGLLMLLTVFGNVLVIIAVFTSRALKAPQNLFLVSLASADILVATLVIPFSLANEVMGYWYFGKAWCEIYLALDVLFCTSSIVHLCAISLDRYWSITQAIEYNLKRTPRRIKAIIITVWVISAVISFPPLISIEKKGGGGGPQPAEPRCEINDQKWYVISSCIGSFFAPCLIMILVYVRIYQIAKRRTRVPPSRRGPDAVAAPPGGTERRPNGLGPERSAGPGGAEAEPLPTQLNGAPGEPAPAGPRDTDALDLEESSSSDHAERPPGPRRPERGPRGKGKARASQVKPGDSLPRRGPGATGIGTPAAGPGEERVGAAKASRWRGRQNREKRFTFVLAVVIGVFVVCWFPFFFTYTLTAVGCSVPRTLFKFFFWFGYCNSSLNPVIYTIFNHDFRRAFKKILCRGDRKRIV
Description: (§1) The RSAT assay measures a receptor-mediated loss of contact inhibition that results in selective proliferation of receptor-containing cells in a mixed population of confluent cells. The increase in cell number is assessed with an appropriate transfected marker gene such as -galactosidase, the activity of which can be easily measured in a 96-well format. Receptors that activate the G protein, Gq, elicit this response. Alpha2 receptors, which normally couple to Gi, activate the RSAT response when coexpressed with a hybrid Gq protein that has a Gi receptor recognition domain, called Gq/i5.
(§2) NIH-3T3 cells are plated at a density of 2×10^6 cells in 15 cm dishes and maintained in Dulbecco's modified Eagle's medium supplemented with 10% calf serum. […] After washing with phosphate-buffered saline, β-galactosidase enzyme activity is determined by adding 200 μl of the chromogenic substrate (consisting of 3.5 mM o-nitrophenyl-β-D-galactopyranoside and 0.5% nonidet P-40 in phosphate buffered saline), incubating overnight at 30° C. and measuring optical density at 420 nm. The absorbance is a measure of enzyme activity, which depends on cell number and reflects a receptor-mediated cell proliferation. The efficacy or intrinsic activity is calculated as a ratio of the maximal effect of the drug to the maximal effect of a standard full agonist for each receptor subtype. […]

[2] = target: T2, Alpha 2B (Homo sapiens, UniProt P18089); assay: RSAT assay, alpha 2B receptor; conditions: for Alpha 2B (IA) intrinsic activity: RSAT, ratio of maximal effect to that of standard agonist brimonidine
T2 construct: expressed in transfected cells; host or cells: NIH-3T3
T2 sequence (P18089 1-450): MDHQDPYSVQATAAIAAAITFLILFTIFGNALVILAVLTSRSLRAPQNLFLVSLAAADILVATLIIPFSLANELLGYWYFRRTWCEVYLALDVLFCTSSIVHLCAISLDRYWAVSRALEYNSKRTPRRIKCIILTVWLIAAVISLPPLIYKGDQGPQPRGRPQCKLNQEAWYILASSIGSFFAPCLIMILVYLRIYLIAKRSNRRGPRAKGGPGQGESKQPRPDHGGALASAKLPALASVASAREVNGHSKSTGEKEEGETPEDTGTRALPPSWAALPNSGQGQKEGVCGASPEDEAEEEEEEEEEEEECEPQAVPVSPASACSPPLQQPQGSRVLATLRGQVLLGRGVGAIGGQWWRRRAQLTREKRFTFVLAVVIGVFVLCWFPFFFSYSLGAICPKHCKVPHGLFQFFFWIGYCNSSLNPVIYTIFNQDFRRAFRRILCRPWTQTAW
Description: as §1
NIH-3T3 cells are plated at a density of 2×10^6 cells in 15 cm dishes and maintained in Dulbecco's modified Eagle's medium supplemented with 10% calf serum. One day later, cells are cotransfected by calcium phosphate precipitation with mammalian expression plasmids encoding p-SV-1-galactosidase (5-10 μg), receptor (1-2 μg) and G protein (1-2 μg). 40 μg salmon sperm DNA may also be included in the transfection mixture. Fresh media is added on the following day and 1-2 days later, cells are harvested and frozen in 50 assay aliquots. Cells are thawed and 100 μl added to 100 μl aliquots of various concentrations of drugs in triplicate in 96-well dishes. Incubations continue 72-96 hr at 37° C. After washing with phosphate-buffered saline, β-galactosidase enzyme activity is determined by adding 200 μl of the chromogenic substrate (consisting of 3.5 mM o-nitrophenyl-β-D-galactopyranoside and 0.5% nonidet P-40 in phosphate buffered saline), incubating overnight at 30° C. and measuring optical density at 420 nm. The absorbance is a measure of enzyme activity, which depends on cell number and reflects a receptor-mediated cell proliferation. The efficacy or intrinsic activity is calculated as a ratio of the maximal effect of the drug to the maximal effect of a standard full agonist for each receptor subtype. Brimonidine, also called UK14304, the chemical structure of which is shown below, is used as the standard agonist for the alpha2A, alpha2B and alpha2C receptors. The EC50 is the concentration at which the drug effect is half of its maximal effect.
EC50 values are nanomolar. NA stands for “not active” at concentrations less than 10 micromolar. IA stands for “intrinsic activity.”

[3] = target: T3, Alpha 1A (Homo sapiens, UniProt P35348); assay: RSAT assay, alpha 1A receptor
T3 construct: expressed in transfected cells; host or cells: NIH-3T3
T3 sequence (P35348 1-466): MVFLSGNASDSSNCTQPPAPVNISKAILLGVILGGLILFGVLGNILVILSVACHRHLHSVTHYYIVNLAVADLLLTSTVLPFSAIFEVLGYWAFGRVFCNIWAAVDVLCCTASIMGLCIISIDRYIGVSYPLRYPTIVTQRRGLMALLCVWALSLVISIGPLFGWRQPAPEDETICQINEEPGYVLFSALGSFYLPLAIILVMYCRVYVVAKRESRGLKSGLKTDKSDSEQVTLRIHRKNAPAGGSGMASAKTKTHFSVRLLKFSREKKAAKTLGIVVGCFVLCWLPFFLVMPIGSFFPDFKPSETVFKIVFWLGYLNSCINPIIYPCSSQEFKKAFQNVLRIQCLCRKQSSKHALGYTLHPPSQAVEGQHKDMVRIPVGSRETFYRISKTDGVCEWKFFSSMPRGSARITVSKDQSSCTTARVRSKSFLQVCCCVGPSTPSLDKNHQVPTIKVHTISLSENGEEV
Description: as §1, §2

[4] = target: T4, Alpha 2C (Homo sapiens, UniProt P18825); assay: RSAT assay, alpha 2C receptor
T4 construct: expressed in transfected cells; host or cells: NIH-3T3
T4 sequence (P18825 1-462): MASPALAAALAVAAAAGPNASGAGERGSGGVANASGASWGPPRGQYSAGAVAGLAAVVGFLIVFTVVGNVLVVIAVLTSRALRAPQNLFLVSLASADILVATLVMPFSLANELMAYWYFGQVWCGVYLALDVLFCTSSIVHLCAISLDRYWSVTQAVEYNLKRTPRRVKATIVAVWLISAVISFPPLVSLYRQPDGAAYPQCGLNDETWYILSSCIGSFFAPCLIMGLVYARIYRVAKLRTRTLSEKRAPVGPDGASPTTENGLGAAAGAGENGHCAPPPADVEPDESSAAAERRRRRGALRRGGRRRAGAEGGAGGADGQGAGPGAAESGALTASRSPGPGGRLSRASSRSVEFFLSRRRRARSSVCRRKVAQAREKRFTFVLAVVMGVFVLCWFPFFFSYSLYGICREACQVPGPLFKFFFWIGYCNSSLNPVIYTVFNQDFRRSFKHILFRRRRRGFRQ
Description: as §1, §2

| Compound | Alpha 2A (IA) intrinsic activity [1] | EC50 [2] [µM] | Alpha 2B (IA) intrinsic activity [2] | EC50 [3] [µM] | Alpha 1A (IA) intrinsic activity ([3]; RSAT, ratio of maximal effect of drug to maximal effect of standard full agonist) | EC50 [4] [µM] | Alpha 2C (IA) intrinsic activity ([4]; RSAT, ratio of maximal effect to that of standard agonist brimonidine) |
| --- | --- | --- | --- | --- | --- | --- | --- |
| Cc1[nH]cnc1Cc1ccc2cccnc2c1C [8-methyl-7-((5-methyl-1H-imidazol-4-yl)methyl)quinoline] | 0.43 |  |  |  |  |  |  |
| Cc1[nH]cnc1Cc1cccc2cccnc12 [8-((5-methyl-1H-imidazol-4-yl)methyl)quinoline] |  | 0.117 | 0.70 | 1.73 | 0.75 |  |  |
| Cc1[nH]cnc1C(C)c1cccc2cccnc12 (stereo not drawn) [8-(1-(5-methyl-1H-imidazol-4-yl)ethyl)quinoline] |  | 0.03 | 0.70 |  |  | 3.11 | 0.32 |
